Data reported in PMC6003355 (2018).

System: WT T. oceani 112 ilvE RNA (RNA, riboswitch) GGAAGUGUACCUUAGGGUUCCGGCCAUAAGGCGUCAGCGACCGAGCGGUACAAUCCGGGGAAACCCGGAACACCGUGAGCAUAAAAGGCUCCAGCGGCAAGUUCCUAAAAGA
Test: in-line probing
Conditions: apparent; ppGpp 200 pM to 5 µM

KD: ~ 10 nM
SMILES: Nc1nc2c(ncn2[C@@H]2O[C@H](COP(=O)(O)OP(=O)(O)O)[C@@H](OP(=O)(O)OP(=O)(O)O)[C@H]2O)c(=O)[nH]1
